This note sets out measurements from US5998436A, “Pyridonecarboxylic acid derivatives or their salts and antibacterial agent comprising the same as the active ingredient” (Wakunaga Pharmaceuticals Co., Ltd., priority 1995, dated 1999).

≈ marks a conversion by molar mass, not a printed value. Structures can show the parent of a compound that is named as a salt. Where two headings read alike, the source gives them in different places.

One series concerns P. aeruginosa IFO 3445. The experiment in a line: minimum growth inhibitory concentration (MIC), standard method of Japan Chemotherapy Society. The note with it: Pseudomonas aeruginosa. It is filed as cell-based. The procedure: (§1) It should be noted that ciprofloxacin, levofloxacin,sparfloxacin and tosufloxacin which are conventional antibacterials were also evaluated for their minimum growth inhibitory concentration (MIC, μg/ml) for the purpose of comparison.

In the next series the test system is S. epidermidis IFO12293. The description is as above. It counts as cell-based. The note with it: Staphylococcus epidermidis. On the procedure:
as §1

The test system of a further series is S. aureus 209P. The series is described as above. It is filed as cell-based. The note with it: Staphylococcus aureus, read-out: minimum growth inhibitory concentration (MIC). On the procedure: as §1
In the next series the test system is Female ICR mice (ears). The note with it: mouse, in vivo, iv, 40 mg/kg. The procedure: The compounds of the Examples 9, 10, 12 and 39 as described above were subjected to phototoxicity test by the procedure as described below.
Female ICR mice (5 to 6 week old) were intravenously administered with the test compound (40 mg/kg/10 ml), and irradiated with UV (320 to 400 nm, 1.8 mW/cm^2 /sec) for 4 hours. Abnormality in the ears was monitored at 0 hour (immediately after the irradiation) and after 24 and 48 hours. The ear abnormality was evaluated by the following is criteria: no abnormality (0 point), very slight erythema (1 point), well defined erythema (2 points), moderate to severe erythema and edema formation (3 points). Tosufloxacin which is a conventional known antibacterial agent was also tested in a similar way for the purpose of comparison.

Where [1] appears, read: IFO3445, P. aeruginosa IFO 3445, read-out: minimum growth inhibitory concentration (MIC).
Where [2] appears, read: S. epidermidis IFO12293, read-out: minimum growth inhibitory concentration (MIC).

In the case of `O=C(O)c1cn(C2CC2)c2cc(N3CCNCC3)c(F)cc2c1=O` [Ciprofloxacin, ciprofloxacin, reference compound], the MIC in the series on P. aeruginosa IFO 3445 (IFO3445, read-out: minimum growth inhibitory concentration (MIC)) stood at 0.2 mg/L (≈ 0.604 µM); with S. epidermidis IFO12293 (IFO12293, read-out: minimum growth inhibitory concentration (MIC)), 0.39 mg/L (≈ 1.18 µM); in the series on S. aureus 209P (209P), 0.1 mg/L (≈ 0.302 µM).
As to `Nc1nc(-n2cc(C(=O)O)c(=O)c3cc(F)c(N4CC(N)C4)c(Cl)c32)c(F)cc1F` [Ex. 9, 7-(3-aminoazetidin-1-yl)-1-(6-amino-3,5-difluoropyridin-2-yl)-8-chloro-6-fluoro-4-oxo-1,4-dihydroquinoline-3-carboxylic acid], the MIC was 0.05 mg/L (≈ 0.114 µM) with P. aeruginosa IFO 3445 (setting [1]), 0.025 mg/L (≈ 0.0568 µM) in the series with S. epidermidis IFO12293 (setting [2]) and less than 0.013 mg/L with S. aureus 209P (S. aureus 209P). Further, the “ear abnormality score (0 no abnormality, 1 very slight erythema, 2 well defined erythema, 3 moderate to severe erythema and edema)” value in the series on Female ICR mice (ears) is recorded as 0 point. In the series with Female ICR mice (ears), the “ear abnormality, occurrence” value is recorded as 0/3.
Consider `CNC1CN(c2c(F)cc3c(=O)c(C(=O)O)cn(-c4nc(N)c(F)cc4F)c3c2Cl)C1` [Ex. 10, 1-(6-amino-3,5-difluoropyridin-2-yl)-8-chloro-6-fluoro-7-(3-methylaminoazetidin-1-yl)-4-oxo-1,4-dihydroquinoline-3-carboxylic acid], for which the MIC in the series with P. aeruginosa IFO 3445 (setting [1]) is 0.1 mg/L (≈ 0.22 µM); with S. epidermidis IFO12293 (setting [2]) it was 0.025 mg/L (≈ 0.0551 µM); in the series on S. aureus 209P (S. aureus 209P) it was less than 0.013 mg/L. Further, the “ear abnormality score (0 no abnormality, 1 very slight erythema, 2 well defined erythema, 3 moderate to severe erythema and edema)” value in the series with Female ICR mice (ears) was 0 point. In addition, the “ear abnormality, occurrence” value in the series on Female ICR mice (ears) is recorded as 0/3.
On the same counts, the results for `Nc1nc(-n2cc(C(=O)O)c(=O)c3cc(F)c(N4CC(O)C4)c(Cl)c32)c(F)cc1F` [Ex. 12, 3-hydroxyazetidine salt of 1-(6-amino-3,5-difluoropyridin-2-yl)-8-chloro-6-fluoro-7-(3-hydroxyazetidin-1-yl)-4-oxo-1,4-dihydroquinoline-3-carboxylic acid] are 0.39 mg/L, less than 0.013 mg/L, less than 0.013 mg/L, 0 point and 0/3.
On the same counts, the results for `Nc1nc(-n2cc(C(=O)O)c(=O)c3cc(F)c(N4CC(N)C4)c(Br)c32)c(F)cc1F` [Ex. 39, 7-(3-aminoazetidin-1-yl)-1-(6-amino-3,5-difluoropyridin-2-yl)-8-bromo-6-fluoro-4-oxo-1,4-dihydroquinoline-3-carboxylic acid] are 0.05 mg/L (≈ 0.103 µM), 0.025 mg/L (≈ 0.0516 µM), less than 0.013 mg/L, 0 point and 0/3.
As to `C[C@H]1COc2c(N3CCN(C)CC3)c(F)cc3c(=O)c(C(=O)O)cn1c23` [Levofloxacin, levofloxacin, reference compound], the MIC with P. aeruginosa IFO 3445 (setting [1]) stood at 0.39 mg/L (≈ 1.08 µM); with S. epidermidis IFO12293 (setting [2]), 0.39 mg/L (≈ 1.08 µM); in the series on S. aureus 209P (S. aureus 209P) it was 0.1 mg/L (≈ 0.277 µM).
Consider `C[C@@H]1CN(c2c(F)c(N)c3c(=O)c(C(=O)O)cn(C4CC4)c3c2F)C[C@H](C)N1` [Sparfloxacin, sparfloxacin, reference compound], for which the MIC with P. aeruginosa IFO 3445 (setting [1]) was determined as 0.78 mg/L (≈ 1.99 µM); in the series with S. epidermidis IFO12293 (setting [2]), 0.2 mg/L (≈ 0.51 µM); in the series with S. aureus 209P (S. aureus 209P), 0.1 mg/L (≈ 0.255 µM).
Consider `NC1CCN(c2nc3c(cc2F)c(=O)c(C(=O)O)cn3-c2ccc(F)cc2F)C1` (centres unmarked) [Tosufloxacin, tosufloxacin, reference compound], for which the MIC amounted to 0.39 mg/L (≈ 0.965 µM) in the series with P. aeruginosa IFO 3445 (setting [1]), 0.2 mg/L (≈ 0.495 µM) in the series on S. epidermidis IFO12293 (setting [2]) and 0.05 mg/L (≈ 0.124 µM) in the series with S. aureus 209P (S. aureus 209P).
